Measurements reported in PubChem BioAssay (NCI).
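Values below derive from 48-hour exposures of cells grown in 96-well plates, with endpoints linearly interpolated between the two concentrations bracketing the appropriate inhibition level. TGI is the concentration that stops growth completely.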

Columns and labels:
Test in all cases: growth of human tumour cells (NCI), 48 h
[1] = system: 786-0 renal
[2] = system: A498 renal
[3] = system: A549 NSCLC
[4] = system: ACHN renal
[5] = system: BT-549 breast
[6] = system: CAKI-1 renal
[7] = system: CCRF-CEM leukemia
[8] = system: COLO 205 colon
[9] = system: DU-145 prostate
[10] = system: EKVX NSCLC
[11] = system: HCC-2998 colon
[12] = system: HCT-116 colon
[13] = system: HCT-15 colon
[14] = system: HOP-62 NSCLC
[15] = system: HS 578T breast
[16] = system: HT29 colon
[17] = system: IGROV1 ovarian
[18] = system: K-562 leukemia
[19] = system: KM12 colon
[20] = system: LOX IMVI melanoma
[21] = system: M14 melanoma
[22] = system: MALME-3M melanoma
[23] = system: MCF7 breast
[24] = system: MDA-MB-231 breast
[25] = system: MDA-MB-435
[26] = system: MDA-N
[27] = system: MOLT-4 leukemia
[28] = system: NCI-H226 lung
[29] = system: NCI-H23 lung
[30] = system: NCI-H460 lung
[31] = system: NCI-H522 lung
[32] = system: NCI/ADR-RES ovarian
[33] = system: OVCAR-3 ovarian
[34] = system: OVCAR-4 ovarian
[35] = system: OVCAR-5 ovarian
[36] = system: OVCAR-8 ovarian
[37] = system: PC-3 prostate
[38] = system: RPMI-8226 leukemia
[39] = system: RXF 393 renal
[40] = system: SF-268 CNS
[41] = system: SF-295 CNS
[42] = system: SF-539 CNS
[43] = system: SK-MEL-2 melanoma
[44] = system: SK-MEL-28 melanoma
[45] = system: SK-MEL-5 melanoma
[46] = system: SK-OV-3 ovarian
[47] = system: SN12C renal
[48] = system: SNB-19 CNS
[49] = system: SNB-75 CNS
[50] = system: SR leukemia
[51] = system: SW-620 colon
[52] = system: T-47D breast
[53] = system: TK-10 renal
[54] = system: U251 CNS
[55] = system: UACC-257 melanoma
[56] = system: UACC-62 melanoma
[57] = system: UO-31 renal
[58] = system: HL-60(TB) leukemia
[59] = system: HOP-92 NSCLC

## O=[N+]([O-])/C(C(Cl)=C(Cl)Cl)=C(\N1CCCCC1)n1cncn1
[1]
  TGI: 52.4 µM
[2]
  TGI: 31.4 µM
[3]
  TGI: 39.8 µM
[4]
  TGI: 32.7 µM
[5]
  TGI: 31.6 µM
[6]
  TGI: 25.2 µM
[7]
  TGI: > 100 µM
[8]
  TGI: 30.3 µM
[9]
  TGI: 30.3 µM
[10]
  TGI: 31.6 µM
[11]
  TGI: 40.5 µM
[12]
  TGI: 73.6 µM
[13]
  TGI: 38.1 µM
[14]
  TGI: 37.7 µM
[15]
  TGI: 28.2 µM
[16]
  TGI: 37.5 µM
[17]
  TGI: 24 µM
[18]
  TGI: > 100 µM
[19]
  TGI: 40.8 µM
[20]
  TGI: 42.1 µM
[21]
  TGI: 33.7 µM
[22]
  TGI: 30.9 µM
[23]
  TGI: 50.6 µM
[24]
  TGI: 30.1 µM
[25]
  TGI: 36.3 µM
[26]
  TGI: 32.8 µM
[27]
  TGI: > 50.5 µM
[28]
  TGI: 40.3 µM
[29]
  TGI: 30.2 µM
[30]
  TGI: 72.1 µM
[31]
  TGI: 31.6 µM
[32]
  TGI: 56 µM
[33]
  TGI: 32.2 µM
[34]
  TGI: 36.7 µM
[35]
  TGI: 32.1 µM
[36]
  TGI: 40.8 µM
[37]
  TGI: 31.7 µM
[38]
  TGI: 57.2 µM
[39]
  TGI: 24.2 µM
[40]
  TGI: 26.9 µM
[41]
  TGI: 35.8 µM
[42]
  TGI: 31.4 µM
[43]
  TGI: 43.8 µM
[44]
  TGI: 37.5 µM
[45]
  TGI: 25.3 µM
[46]
  TGI: 37.3 µM
[47]
  TGI: 33.4 µM
[48]
  TGI: 33.6 µM
[49]
  TGI: 49.4 µM
[50]
  TGI: > 100 µM
[51]
  TGI: 36.9 µM
[52]
  TGI: 38.3 µM
[53]
  TGI: 33.2 µM
[54]
  TGI: 29.7 µM
[55]
  TGI: 36.6 µM
[56]
  TGI: 33 µM
[57]
  TGI: 30.8 µM

## C=CC[C@]12C=C(OC)[C@@H](O)[C@](OC)(C(c3cc(OC)c4c(c3)OCO4)[C@H]1C)[C@H]2OC(C)=O (stereo partly drawn)
[1]
  TGI: > 100 µM
[2]
  TGI: > 100 µM
[3]
  TGI: > 100 µM
[4]
  TGI: > 100 µM
[5]
  TGI: > 100 µM
[6]
  TGI: > 100 µM
[7]
  TGI: > 100 µM
[8]
  TGI: > 100 µM
[9]
  TGI: > 100 µM
[10]
  TGI: > 100 µM
[11]
  TGI: > 100 µM
[12]
  TGI: > 100 µM
[13]
  TGI: > 100 µM
[58]
  TGI: > 100 µM
[14]
  TGI: > 100 µM
[59]
  TGI: > 100 µM
[15]
  TGI: > 100 µM
[16]
  TGI: > 100 µM
[17]
  TGI: > 100 µM
[18]
  TGI: > 100 µM
[19]
  TGI: > 100 µM
[21]
  TGI: > 100 µM
[22]
  TGI: > 100 µM
[23]
  TGI: > 100 µM
[24]
  TGI: > 100 µM
[25]
  TGI: > 100 µM
[26]
  TGI: > 100 µM
[27]
  TGI: > 100 µM
[28]
  TGI: > 100 µM
[29]
  TGI: > 100 µM
[30]
  TGI: > 100 µM
[31]
  TGI: > 100 µM
[32]
  TGI: > 100 µM
[33]
  TGI: > 100 µM
[34]
  TGI: > 100 µM
[35]
  TGI: > 100 µM
[36]
  TGI: > 100 µM
[37]
  TGI: > 100 µM
[38]
  TGI: > 100 µM
[39]
  TGI: > 100 µM
[40]
  TGI: > 100 µM
[41]
  TGI: > 100 µM
[42]
  TGI: > 100 µM
[43]
  TGI: > 100 µM
[44]
  TGI: > 100 µM
[45]
  TGI: > 100 µM
[46]
  TGI: > 100 µM
[47]
  TGI: > 100 µM
[48]
  TGI: > 100 µM
[49]
  TGI: > 100 µM
[50]
  TGI: > 100 µM
[51]
  TGI: > 100 µM
[52]
  TGI: > 100 µM
[53]
  TGI: > 100 µM
[54]
  TGI: > 100 µM
[55]
  TGI: > 100 µM
[56]
  TGI: > 100 µM
[57]
  TGI: > 100 µM

## C=C1CCC(CC[C@@H]2CC[C@]3(OC2)O[C@@]2(O)CC[C@]3(C)OC2(C)C)C(C)(C)[C@H]1C/C=C1/C(=O)OC[C@@H]1O (stereo partly drawn)
[1]
  TGI: 7.78 µM
[2]
  TGI: 15.2 µM
[3]
  TGI: 19.4 µM
[4]
  TGI: 6.89 µM
[5]
  TGI: 4.76 µM
[6]
  TGI: 16.5 µM
[7]
  TGI: 2.32 µM
[8]
  TGI: 16.3 µM
[9]
  TGI: 14.8 µM
[10]
  TGI: 11.3 µM
[11]
  TGI: 10.2 µM
[12]
  TGI: 4.89 µM
[13]
  TGI: 3.25 µM
[14]
  TGI: 19.9 µM
[59]
  TGI: 6.51 µM
[15]
  TGI: 28.8 µM
[16]
  TGI: 5.01 µM
[17]
  TGI: 11.6 µM
[18]
  TGI: 2.38 µM
[19]
  TGI: 6.35 µM
[20]
  TGI: 1.88 µM
[21]
  TGI: 12.3 µM
[22]
  TGI: 5.99 µM
[23]
  TGI: 2.94 µM
[24]
  TGI: 3.72 µM
[25]
  TGI: 5.82 µM
[26]
  TGI: 4.36 µM
[27]
  TGI: 5.45 µM
[28]
  TGI: 6.94 µM
[29]
  TGI: 5.2 µM
[30]
  TGI: 15.1 µM
[31]
  TGI: 3.5 µM
[32]
  TGI: 6.92 µM
[33]
  TGI: 7.41 µM
[34]
  TGI: 5.51 µM
[35]
  TGI: 6.65 µM
[36]
  TGI: 5.04 µM
[37]
  TGI: 10.7 µM
[38]
  TGI: > 25.1 µM
[39]
  TGI: 4.88 µM
[40]
  TGI: 8.89 µM
[41]
  TGI: 10.5 µM
[42]
  TGI: 9.18 µM
[43]
  TGI: 1.36 µM
[44]
  TGI: 3.58 µM
[45]
  TGI: 1.72 µM
[46]
  TGI: 16.6 µM
[47]
  TGI: 8.03 µM
[48]
  TGI: 8.88 µM
[49]
  TGI: 19.3 µM
[50]
  TGI: > 100 µM
[51]
  TGI: 12.6 µM
[52]
  TGI: 6.15 µM
[53]
  TGI: 11.5 µM
[54]
  TGI: 6.29 µM
[55]
  TGI: 4.84 µM
[56]
  TGI: 3.8 µM
[57]
  TGI: 9.33 µM
